The results in this text go back to publication PMC9415509, “Pro-Apoptotic Antitumoral Effect of Novel Acridine-Core Naphthoquinone Compounds against Oral Squamous Cell Carcinoma” (Molecules, 2022).

Several values for one entry are separate records, joined by “and”; a condition that tells them apart may be missing. Equal values may be shown once. A value given as a limit tells only on which side of the number the result lay.

One series concerns SCC4 OSCC cell line. As to the kind of experiment: MTT cell viability assay (cytotoxicity), SCC4. It counts as cell-based, human. Here is the method: (§1) Cells and reagents. Human SCC-4, SCC-9, and SCC-25 cells, derived from a human oral tongue SCC (squamous cell carcinoma) were obtained from the ATCC (CRL-1624, CRL-1629, and CRL-1628, respectively) and maintained in 1:1 DMEM/F12 (Dulbecco’s modified Eagle medium and Ham’s F12 medium; Gibco (Thermo Fisher, Waltham, MA, USA)) supplemented with 10% (v/v) FBS (fetal bovine serum; Invitrogen, Thermo Fisher, Waltham, MA, USA) and 400 ng/mL hydrocortisone (Sigma-Aldrich Co., St. Louis, MO, USA). Primary normal human gingival fibroblasts were obtained from the ATCC (PCS-201-018) and maintained in DMEM supplemented with 10% (v/v) FBS and were used in a maximum of six passages. The cells were grown in a humidified environment containing 5% CO2 at 37 °C. […] Carboplatin stock was prepared in water (Fauldcarbo®; LibbsFarmacêutica, São Paulo, SP, Brazil) and was used as a standard anticancer compound.
(§2) Cell viability assay (cytotoxicity) and compound stability assay. The viability of SCC cell lines and primary human fibroblast cells was evaluated using the MTT assay as in [48]. Briefly, the cells were grown in triplicates in 96-well plates (5 × 10^3 cells/well) until confluence. Then, the medium was removed, fresh medium was added, and the cells were returned to the incubator in the presence of different compounds. DMSO at the same concentrations was used as a 100% cell viability control. After 48 h, the cells were incubated with 5 mg/mL MTT reagent (3-(4,5-dimethyl-2-thiazolyl)-2,5-diphenyl-2-H-tetrazolium bromide) (Sigma-Aldrich Co., St. Louis, MO, USA) for 3.5 h. After that, formazan crystals were dissolved in MTT solvent solution (DMSO/methanol 1:1 v/v) and the absorbance at 560 nm was evaluated using an EPOCH microplate spectrophotometer (BioTek Instruments, Winooski, VT, USA) with the background absorbance at 670 nm subtracted.
(§3) Statistical analysis, IC50 calculation. The data are presented as means ±\SD. IC50 values for the MTT assays were obtained by nonlinear regression using the […] 5.0 program (Intuitive Software for Science, San Diego, CA, USA) from at least three independent experiments. A dose–response (inhibitor) vs. response curve using the least squares method was used to determine the IC50, SD, and R^2 of the data. The selectivity index was calculated as SI = IC50 of the compound in normal oral fibroblast cells/IC50 of the same compound for each oral cancer cell line (SCC-4, SCC-9, and SCC-25) and the mean was calculated when indicated.

Another series deals with SCC9 cells. Kind of series: Caspase 3/7 activity, flow cytometry. It counts as cell-based, human. Conditions: SCC9, 2× IC50, 48 h. The method, then: Phosphatidylserine exposure analysis (apoptosis). Cells of the SCC9 cell line were plated in 6-well plates (5 × 10^5 cells/well), trypsinized 48 h after treatment, labeled using the Annexin V-FITC Apoptosis Detection Kit according to the manufacturer’s protocol (#BMS500FI/300, Invitrogen), and analyzed by FACScalibur flow cytometry as in [50]. Furthermore, 5 × 10^4 SCC9 cells were plated in a 24-well plate containing 1 mL of DMEM/F12 with 10% FBS per well. CellEvent™ Caspase-3/7 Reagent (#R37111, Invitrogen) was diluted in a culture medium according to the manufacturer’s instructions. […] The cells were analyzed by flow cytometry at the time of 48 h of treatment.

Series [1] in a line: MTT cell viability assay, normal fibroblasts. It counts as cell-based, human. Conditions: human, primary normal human gingival fibroblasts (ATCC PCS-201-018). Here is the method:
as §1, §2, §3

The subject of series [2] is Primary normal human gingival fibroblasts. Kind of series: MTT cell viability assay, normal fibroblasts. In kind it is cell-based. Conditions: Homo sapiens, Fibroblast; primary gingival fibroblasts, 48 h, MTT; read-out: Primary Gingival Fibroblast IC50. Here is the method:
as §1, §2, §3

The test system of the next series is SCC9 (OSCC cell). As to the kind of experiment: MTT cell viability assay (cytotoxicity), SCC9. In kind it is cell-based, human. Here is the method: as §1, §2, §3

`CC1(C)CC(=O)C2=C(C1)NC1=C(C(=O)c3ccccc3C1=O)C2c1ccc(Cl)cc1Cl` (stereo not shown) [4e, 12-(2,4-dichlorophenyl)-3,3-dimethyl-3,4-dihydrobenzo[b]acridine-1,6,11(2H,5H,12H)-trione]: the IC50 with SCC4 OSCC cell line (Homo sapiens, SCC-4, SCC4, 48 h, MTT, read-out: Oral Tumor Cells SCC4 IC50) worked out at 53.8 µM; in series [2], 88 µM; in the series with SCC9 (OSCC cell) (Homo sapiens, SCC-9, SCC9, 48 h, MTT (Table 1), read-out: SCC9—Oral Cancer IC50), 14.7 µM. For the same molecule, in the series on SCC4 OSCC cell line (IC50 normal oral fibroblasts / IC50 SCC4), the “SCC4 S.I.” value turned out to be 1.6. Moreover, the “active caspase 3/7 labeling, cells” value in the series on SCC9 cells was 52.4% and ~ 52%. For the same molecule, the viability at 48 h in series [1] is > 75%. The “SCC9 S.I.” value with SCC9 (OSCC cell) (IC50 normal oral fibroblasts / IC50 SCC9) was determined as 6.0.
